The results in this text go back to patent US7589123B2, “Chemical compounds” (Phytopharm PLC, priority 2006, dated 2009).

Structures can show the parent of a compound that is named as a salt.

One data set has as its target T1, 5-lipoxygenase (Homo sapiens, UniProt P09917).
T1 construct: endogenous in cells; host or cells: human peripheral blood mononuclear leukocytes (PBMLs)
T1 sequence (P09917 1-674): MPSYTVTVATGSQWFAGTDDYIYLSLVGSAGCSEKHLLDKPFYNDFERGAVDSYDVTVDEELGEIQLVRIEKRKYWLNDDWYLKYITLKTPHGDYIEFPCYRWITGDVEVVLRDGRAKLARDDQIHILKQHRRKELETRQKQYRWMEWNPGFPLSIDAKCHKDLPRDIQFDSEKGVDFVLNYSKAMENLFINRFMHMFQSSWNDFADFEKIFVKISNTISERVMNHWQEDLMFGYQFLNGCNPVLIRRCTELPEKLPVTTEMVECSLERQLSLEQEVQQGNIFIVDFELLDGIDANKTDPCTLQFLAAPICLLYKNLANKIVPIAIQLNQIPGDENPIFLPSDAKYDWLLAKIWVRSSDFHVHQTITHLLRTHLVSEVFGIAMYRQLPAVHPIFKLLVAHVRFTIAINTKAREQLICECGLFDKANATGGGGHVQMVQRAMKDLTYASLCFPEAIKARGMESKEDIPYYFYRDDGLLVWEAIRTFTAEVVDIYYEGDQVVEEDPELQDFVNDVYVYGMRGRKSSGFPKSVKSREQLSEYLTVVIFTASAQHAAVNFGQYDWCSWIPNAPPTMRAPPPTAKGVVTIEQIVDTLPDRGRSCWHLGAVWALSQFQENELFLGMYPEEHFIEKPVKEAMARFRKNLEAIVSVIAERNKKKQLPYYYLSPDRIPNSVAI
Description: 5-lipoxygenase activity (LTB4) in human peripheral blood mononuclear leukocytes (Assay 6). Particulars: human PBMLs, A23187 30 μM, read-out: Inhibition of 5-LO (%). In kind it is cell-based. As for the experimental part:
Human peripheral blood mononuclear leukocytes (PBMLs) were isolated using a Ficoll-Paque density gradient. Human peripheral blood mononuclear leukocytes (5×10^6 cells) were incubated with A23187 (30 μM), a divalent cation ionophore used to initiate the biosynthesis of […], and with vehicle (0.1% DMSO) or test compound (3 and 30 μM) in Hank's balanced salt solution (HBBS) buffer, pH 7.4 at 37° C. for 15 min. The PBML solution was neutralized with NaOH (1 N) and centrifuged at 1000 g for 10 min and the supernatant collected. The concentration of leukotriene B4 (LTB4) in the supernatant was measured using an enzyme immunoassay kit (Assay Design Inc.). A reduction in the concentration of LTB4 indicated an inhibition of the enzyme 5-lipoxygenase (Table 11).

Data set [1] has as its system IL-1α-induced PGE2 release. Briefly: IL-1α-induced PGE2 release in human diploid lung fibroblasts (WI-38) (Assay 5). In kind it is cell-based. Particulars: Homo sapiens, WI-38 cells, IL-1α 1 nM, overnight. As for the experimental part:
(§1) Human diploid lung fibroblasts (WI-38 cells) were incubated overnight in the presence of IL-1α (1 nM) and test compound (3 and 30 μM) in modified Eagle medium at pH 7.3 containing foetal bovine serum (10%) at 37° C. The supernatant was assayed by radioimmunoassay for released PGE2 and the inhibition of PGE2 by test compound calculated (Table 10). The viability of the cells was then assessed by washing with Roswell Park Memorial Institute medium and adding Alamar Blue reagent before being incubated at 37° C. for 4 h. Living cells take up Alamar Blue and emit fluorescence when excited. Fluorescence intensity was measured using a SpectroFluor Plus plate reader with excitation at 530 nm and emission at 590 nm (Table 10).

For data set [2], the system named is α-smooth muscle actin (α-SMA) mRNA. Description: Anti-remodelling activity in human lung fibroblasts (HFL1): TGFβ-induced α-SMA mRNA (Assay 4). The class given is cell-based. Conditions: Homo sapiens, HFL1 cells, TGFβ 10 ng/ml, 24 h, read-out: Inhibition of α-SMA mRNA synthesis (%). The protocol:
A human foetal lung fibroblast cell line (HFL1 cells; ATCC accession number CCl-153) was used in this assay. The cells were cultured in medium containing a low level of foetal bovine serum (FBS; 0.1%) for 24 h. After 24 h of culturing the medium was changed to: (a) Control medium (medium containing 10% FBS, 1% phosphate saline and 0.5 mM L-glutamine), (b) Control medium and transforming growth factor beta (TGFβ; 10 ng/ml), (c) Control medium and TGFβ and test compounds (3 and 30 μM). The medium was collected after 24 h and the total mRNA extracted in Tri-reagent. The level of mRNA coding for α-smooth muscle actin (α-SMA) was assessed by real-time reverse transcription-polymerase chain reaction (rtRT-PCR) using primer couples that allow the amplification of α-SMA mRNA. Liver glyceraldehydes 3-phosphate dehydrogenase (GADPH) was used as a reference marker in this experiment. The inhibition of the TGTβ-induced overexpression of α-SMA mRNA by the test compounds was quantified.

Data set [3] has as its system histamine-induced contractions in guinea pig ileum. Description: Inhibition of histamine-induced contractions in guinea pig ileum (Assay 3). Particulars: Cavia porcellus, histamine 1.7 μM, read-out: Inhibition of histamine-induced contraction (%). The protocol:
(§2) Duncan Hartley derived male guinea pigs (325±25 g) were suppressed by CO2 overexposure, the abdominal cavity was exposed and ileal segments were removed. Small strips of ileum were suspended in organ baths containing Krebs solution (composition in g/l: NaCl 6.89, KCl 0.35, CaCl2 0.277, KH2PO4 0.163, MgSO4.7H2O 0.296, NaHCO3 2.1 glucose 1.8). The solution was kept at 32° C. and gassed with O2 (95%)-CO2 (5%) to maintain pH at 7.4. Mechanical activity was recorded by means of isotonic transducers. A resting tension of 1 g was applied to muscle strips before being equilibrated for 1 h, prior to test compound addition. Each preparation was washed twice at 15 min intervals during the equilibration.
(§3) Histamine (1.7 μM; approximately EC60-70) or 5-hydroxytryptamine (5-HT, 2.6 μM; approximately EC60-70) was applied for 5 min and the amplitude of the contraction recorded. The histamine or 5-HT was then washed out until the ileal tissue returned to baseline. Five min after returning to baseline test compound (3 and 30 μM) was applied and the amplitude of the contraction (if any) was recorded. In the continuous presence of test compound, histamine or 5-HT was re-applied and the inhibition of the response was recorded.

In data set [4] the test system is 5-HT-induced contractions in guinea pig ileum. Briefly: Inhibition of 5-HT-induced contractions in guinea pig ileum (Assay 3). Particulars: Cavia porcellus, 5-HT 2.6 μM, read-out: Inhibition of 5-HT-induced contraction (%). The protocol: as §2, §3
A further data set has as its target TRPV1 receptor (Rattus norvegicus, UniProt O35433). Briefly: TRPV1 modulation in DRG neurones: CGRP release in absence and presence of capsaicin (Assay 2). In kind it is cell-based. Also noted: The culture used for this experiment contained sensory neurones, Schwann cells and fibroblasts; endogenous in cells; host or cells: primary rat DRG sensory neurone culture (with Schwann cells and fibroblasts). Conditions: 20 min; for inhibition at 3 µM: 3 μM with capsaicin 1 μM; for inhibition at 3 µM / inhibition at 30 µM: −ve: inhibition, +ve: potentiation of capsaicin response, read-out: Effect of test compounds on capsaicin (1 μM)-induced CGRP release (%); for inhibition at 30 µM: 30 μM with capsaicin 1 μM; for Emax at 3 µM: test compound alone 3 μM; for Emax at 3 µM / Emax at 30 µM: rat DRG sensory neurones, read-out: CGRP release (% of capsaicin (1 μM) response); for Emax at 30 µM: test compound alone 30 μM.

A further data set has as its system WI-38 cells. Briefly: Viability of WI-38 cells, Alamar Blue (Assay 5). The class given is cell-based, human. As for the experimental part: as §1
On the technique in general: Resazurin is reduced to fluorescent resorufin, in cell work by metabolically active cells.

Chain of TRPV1 receptor (O35433 whole entry): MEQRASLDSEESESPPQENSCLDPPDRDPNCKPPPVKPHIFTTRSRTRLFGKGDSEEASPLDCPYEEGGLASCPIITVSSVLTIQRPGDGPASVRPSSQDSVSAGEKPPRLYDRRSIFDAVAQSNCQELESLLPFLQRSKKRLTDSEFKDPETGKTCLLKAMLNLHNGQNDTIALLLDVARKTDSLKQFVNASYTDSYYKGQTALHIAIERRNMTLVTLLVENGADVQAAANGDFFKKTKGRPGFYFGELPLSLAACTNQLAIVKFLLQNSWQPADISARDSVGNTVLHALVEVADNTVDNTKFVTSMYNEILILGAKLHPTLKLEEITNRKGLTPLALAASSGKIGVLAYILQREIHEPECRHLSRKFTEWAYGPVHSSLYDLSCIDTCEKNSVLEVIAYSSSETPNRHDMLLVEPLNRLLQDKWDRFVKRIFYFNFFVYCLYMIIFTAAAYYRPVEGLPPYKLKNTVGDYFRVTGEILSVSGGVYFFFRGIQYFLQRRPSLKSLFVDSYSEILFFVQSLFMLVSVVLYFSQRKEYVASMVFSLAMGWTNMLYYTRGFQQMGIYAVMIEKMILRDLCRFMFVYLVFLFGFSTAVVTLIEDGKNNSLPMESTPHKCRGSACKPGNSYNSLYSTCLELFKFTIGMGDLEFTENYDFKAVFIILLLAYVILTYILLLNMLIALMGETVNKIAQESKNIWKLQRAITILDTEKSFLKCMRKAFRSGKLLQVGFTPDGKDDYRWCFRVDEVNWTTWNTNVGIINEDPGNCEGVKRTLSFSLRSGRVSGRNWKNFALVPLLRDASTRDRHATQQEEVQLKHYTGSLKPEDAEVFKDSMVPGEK

As for `COc1cc(CCC(=O)CC(=O)Cc2ccccc2)ccc1O` [Compound 28, 6-(4-Hydroxy-3-methoxyphenyl)-1-phenyl-hexane-2,4-dione], the inhibition at 3 µM at 5-lipoxygenase amounted to 35%; in data set [1], 87%; in data set [2] it was 12%; in data set [3], 7%; in data set [4], 6%; on TRPV1 receptor, 51%. For the same molecule, the inhibition at 30 µM was 98% on 5-lipoxygenase; 99% in data set [1]; 47% in data set [2]; 18% in data set [3]; 85% in data set [4]; -29% on TRPV1 receptor. Besides, the Emax at 3 µM at TRPV1 receptor is 29%. Further, the Emax at 30 µM at TRPV1 receptor stood at 107%. Further, the entries for the “Decrease in cell viability (%)” value in the data set with WI-38 cells (3 μM) and in the data set on WI-38 cells (30 μM) were 1% and 6%, respectively.
Take `COc1cc(CCC(=O)C(C)C(=O)C2(C)CC2)ccc1O` (stereo not shown) [Compound 7, 5-(4-Hydroxy-3-methoxylphenyl)-2-methyl-1-(1-methylcyclopropyl)-pentane-1,3-dione]: the inhibition at 3 µM at 5-lipoxygenase is 24%; in data set [1], 47%; in data set [2], -8%; in data set [3], 4%; in data set [4] it was 0%; at TRPV1 receptor, 19%. For the same molecule, the inhibition at 30 µM at 5-lipoxygenase came to 63%; in data set [1], 94%; in data set [2], 9%; in data set [3], 12%; in data set [4], 26%; at TRPV1 receptor, 41%. Moreover, the Emax at 3 µM on TRPV1 receptor was found to be 35%. Also, the Emax at 30 µM at TRPV1 receptor worked out at 76%. The “Decrease in cell viability (%)” value with WI-38 cells (3 μM) is −4%; with WI-38 cells (30 μM) it was 4%.
On to `COc1cc(CCC(=O)C(C)(C)C(=O)C2(C)CC2)ccc1O` [Compound 70, 5-(4-Hydroxy-3-methoxyphenyl)-2,2-dimethyl-1-(1-methylcyclopropyl)pentane-1,3-dione], for which the inhibition at 3 µM was -1% at 5-lipoxygenase, 42% in data set [1], 4% in data set [3] and 2% in data set [4]. For the same molecule, the inhibition at 30 µM turned out to be 63% at 5-lipoxygenase, 86% in data set [1], 29% in data set [3] and 46% in data set [4]. Besides, the entries for the “Decrease in cell viability (%)” value in the data set with WI-38 cells (3 μM) and in the data set on WI-38 cells (30 μM) were 0% and 5%, respectively.
For `COc1cc(CCC(=O)CC(=O)c2ccccc2-c2ccccc2)ccc1O` [Compound 19, 1-(Biphenyl-2-yl)-5-(4-hydroxy-3-methoxyphenyl)-pentane-1,3-dione], the inhibition at 3 µM was 48% on 5-lipoxygenase; 73% in data set [1]; 57% in data set [2]; 8% in data set [3]; 13% in data set [4]; -29% at TRPV1 receptor. In addition, the inhibition at 30 µM is 99% on 5-lipoxygenase; 100% in data set [1]; 97% in data set [2]; 81% in data set [3]; 39% in data set [4]; -159% at TRPV1 receptor. Also, on TRPV1 receptor, the Emax at 3 µM was 139%. Further, the Emax at 30 µM at TRPV1 receptor is 286%. The “Decrease in cell viability (%)” value in the data set with WI-38 cells (3 μM) is reported as −1%; with WI-38 cells (30 μM), 57%.
Turning to `COc1cc(CCC(=O)CC(=O)c2ccccc2)ccc1OCCN` [Compound 87, 5-(4-(2-aminoethoxy)-3-methoxyphenyl)-1-phenylpentane-1,3-dione hydrochloride], the inhibition at 3 µM was -6% on 5-lipoxygenase, -28% in data set [1], 0% in data set [3] and 15% in data set [4]. For the same molecule, the inhibition at 30 µM at 5-lipoxygenase is 19%; in data set [1], -62%; in data set [3] it was 58%; in data set [4], 93%.
Turning to `COc1cc(CCC(=O)CC(=O)c2ccc3ccccc3c2)c(Cl)cc1O` [Compound 86, 5-(2-Chloro-4-hydroxy-5-methoxyphenyl)-1-(naphthalene-3-yl)pentane-1,3-dione], the inhibition at 3 µM on 5-lipoxygenase came out at 52%; in data set [1] it was 42%; in data set [3] it was 0%; in data set [4] it was 4%. In addition, the inhibition at 30 µM on 5-lipoxygenase worked out at 98%; in data set [1] it was 100%; in data set [3], 9%; in data set [4], 19%. For the same molecule, the “Decrease in cell viability (%)” value with WI-38 cells (3 μM) was found to be 7%; in the data set with WI-38 cells (30 μM), 37%.
